Data taken from patent US5512553A, “7-(substituted)-8-(substituted)-9-(substituted amino)-6-demethyl-6-deoxytetracyclines” (American Cyanamid Company, priority 1995, dated 1996).
Converted amounts (≈) assume the structure as drawn. Counter-ions that a name gives are not always drawn. Like-named read-outs stand apart in the source and are kept apart here.

Assays:
[1] = tested on: E. coli UBMS 89-1 (tetM); assay: microbe, parasite or virus in culture; format: cell-based; conditions: Escherichia coli, 18 h
Experimental: (§1) Method for In Vitro Antibacterial Evaluation (Table I)
(§2) The minimum inhibitory concentration (MIC), the lowest concentration of the antibiotic which inhibits growth of the test organism, is determined by the agar dilution method using Muller-Hinton II agar (Baltimore Biological Laboratories). An inoculum density of 1-5×10^5 CFU/ml and an antibiotic concentration (32-≤0.015 μg/ml) is used. The plates are incubated for 18 hours at 35° C. in a forced air incubator. The test organisms comprise strains sensitive to tetracycline and genetically defined strains that are resistant to tetracycline, due to inability to bind bacterial ribosomes (tetM).

[2] = tested on: S. aureus UBMS 90-2 (tetM); assay: microbe, parasite or virus in culture; format: cell-based; conditions: Staphylococcus aureus, 18 h
Experimental: as §1, §2

[3] = tested on: S. aureus UBMS 88-7 (tetK); assay: microbe, parasite or virus in culture; format: cell-based; conditions: Staphylococcus aureus, 18 h
Experimental: as §1, §2

[4] = tested on: S. aureus UBMS 88-5 (tetM); assay: microbe, parasite or virus in culture; format: cell-based; conditions: Staphylococcus aureus, 18 h
Experimental: as §1, §2

[5] = tested on: S. aureus UBMS 90-1 (tetM); assay: microbe, parasite or virus in culture; format: cell-based; conditions: Staphylococcus aureus, 18 h
Experimental: as §1, §2

[6] = tested on: E. coli UBMS 88-1 (tetB); assay: microbe, parasite or virus in culture; format: cell-based; conditions: Escherichia coli, 18 h
Experimental: as §1, §2

[7] = tested on: S. aureus IVES 1983 (MP) (meth. resistant); assay: In vitro antibacterial evaluation, MIC by agar dilution; format: cell-based; conditions: Staphylococcus aureus
Experimental: as §1, §2

[8] = tested on: S. aureus IVES 2943 (meth. resistant); assay: as above; format: cell-based; conditions: Staphylococcus aureus
Experimental: as §1, §2

[9] = tested on: S. aureus UBMS 88-4 (sensitive); assay: as above; format: cell-based; conditions: Staphylococcus aureus
Experimental: as §1, §2

[10] = tested on: S. haemol. AVAH 88-3; assay: as above; format: cell-based
Experimental: as §1, §2

[11] = tested on: S. aureus ATCC 29213 (sensitive); assay: as above; format: cell-based; conditions: Staphylococcus aureus, ATCC29213; agar dilution, Muller-Hinton II agar, 18 hours at 35° C.; S. aureus ATCC 29213 (sensitive); read-out: MIC
Experimental: as §1, §2

[12] = tested on: E. coli UBMS 89-2 (sensitive); assay: as above; format: cell-based; conditions: Escherichia coli, Muller-Hinton II agar, 18 hours at 35° C.
Experimental: as §1, §2

[13] = tested on: Enteroc. spp. 12201; assay: as above; format: cell-based
Experimental: as §1, §2

[14] = tested on: E. coli UBMS 88-2 (sensitive); assay: as above; format: cell-based; conditions: Escherichia coli, 18 h
Experimental: as §1, §2

[15] = tested on: S. aureus SMITH (MP) (sensitive); assay: as above; format: cell-based; conditions: Staphylococcus aureus
Experimental: as §1, §2

[16] = tested on: S. faecal. ATCC 29212; assay: as above; format: cell-based
Experimental: as §1, §2

[17] = tested on: E. coli ATCC 25922; assay: as above; format: cell-based; conditions: Escherichia coli
Experimental: as §1, §2

[18] = tested on: S. aureus UBMS 90-3 (sensitive); assay: as above; format: cell-based; conditions: Staphylococcus aureus
Experimental: as §1, §2

[19] = tested on: S30 extract from E. coli strain MRE 600 (tetracycline sensitive); assay: E. coli in vitro cell free protein translation system, Wild Type S30; format: biochemical; conditions: for % Inhibition Wild Type S30: 35S-methionine incorporation, 30 minutes at 37° C.
Source text: (§3) E. coli in Vitro protein Translation System (Table II)
(§4) An in vitro, cell free, protein translation system using extracts from E. coli strain MRE 600 (tetracycline sensitive) and a derivative of MRE 600 containing the tetM determinant has been developed based on literature methods J. M. Pratt, Coupled Transcription-translation in Prokaryotic Cell-free Systems, Transcription and Translation, a Practical Approach, (B. D. Hames and S. J. Higgins, eds) p. 179-209, IRL Press, Oxford-Washington, 1984!.
(§5) Using the system described above, the tetracycline compounds of the present invention are tested for their ability to inhibit protein synthesis in vitro. Briefly, each 10 μl reaction contains S30 extract (a whole extract) made from either tetracycline sensitive cells or an isogenic tetracycline resistant (tetM) strain, low molecular weight components necessary for transcription and translation (i.e., ATP and GTP), a mix of 19 amino acids (no methionine), ^35 S labeled methionine, DNA template (either pBR322 or pUC119), and either DMSO (control) or the novel tetracycline compound to be tested ("novel TC") dissolved in DMSO.
(§6) The reactions are incubated for 30 minutes at 37° C. Timing is initiated with the addition of the S30 extract, the last component to be added. After 30 minutes, 2.5 μl of the reaction is removed and mixed with 0.5 ml of 1N NaOH to destroy RNA and tRNA. Two to three ml of 25% trichloroacetic acid is added and the mixture incubated at room temperature for 15 minutes. The trichloroacetic acid precipitated material is collected on Whatman GF/C filters and washed with a solution of 10% trichloroacetic acid. The filters are dried and the retained radioactivity, representing incorporation of ^35 S-methionine into polypeptides, is counted using standard liquid scintillation methods.
(§7) The percent inhibition (P.I.) of protein synthesis is determined to be: [formula]

[20] = tested on: S30 extract from derivative of E. coli MRE 600 containing the tetM determinant; assay: E. coli in vitro cell free protein translation system, TetM S30; format: biochemical; conditions: for % Inhibition TetM S30: 35S-methionine incorporation, 30 minutes at 37° C.
Source text: as §3, §4, §5, §6, §7

[21] = agar dilution, Muller-Hinton II agar, 18 hours at 35° C., S. haemol. AVAH 88-3, read-out: MIC
[22] = agar dilution, Muller-Hinton II agar, 18 hours at 35° C., Enteroc. spp. 12201, read-out: MIC
[23] = agar dilution, Muller-Hinton II agar, 18 hours at 35° C., S. aureus SMITH (MP) (sensitive), read-out: MIC
[24] = agar dilution, Muller-Hinton II agar, 18 hours at 35° C., S. faecal. ATCC 29212, read-out: MIC
[25] = ATCC25922, agar dilution, Muller-Hinton II agar, 18 hours at 35° C., E. coli ATCC 25922, read-out: MIC
[26] = agar dilution, Muller-Hinton II agar, 18 hours at 35° C., S. aureus UBMS 88-4 (sensitive), read-out: MIC
[27] = agar dilution, Muller-Hinton II agar, 18 hours at 35° C., S. aureus UBMS 90-3 (sensitive), read-out: MIC

Row | SMILES | MIC [1] | MIC [2] | MIC [3] | MIC [4] | MIC [5] | MIC [6] | MIC ([7]; 18 h) | MIC ([8]; 18 h) | MIC ([9]; 18 h) | MIC [10, 21] | MIC [11] | MIC [12] | MIC [13, 22] | MIC [14] | MIC [15, 23] | MIC [16, 24] | MIC ([17]; ATCC25922, 18 h) | MIC ([10]; 18 h) | MIC [17, 25] | MIC [9, 26] | further results
1 | CN(C)[C@@H]1C(O)=C(C(N)=O)C(=O)[C@@]2(O)C(O)=C3C(=O)c4c(O)cc(Cl)cc4CC3CC12 (some centres unmarked) [Compound E, 8-Chloro-4-(dimethylamino)-1,4,4a,5,5a,6-11,12a-octahydro-3,10,12,12a-tetrahydroxy-1,11-dioxo-2-naphthacenecarboxamide sulfate] | 16 mg/L | 1 mg/L | 4 mg/L | 2 mg/L | 2 mg/L | > 32 mg/L | 4 mg/L | 4 mg/L | 0.25 mg/L | 0.5 mg/L | 0.03 mg/L | 16 mg/L | 1 mg/L | 16 mg/L | 0.12 mg/L | 2 mg/L | 8 mg/L | – | – | – | –
2 | CN(C)[C@@H]1C(O)=C(C(N)=O)C(=O)[C@@]2(O)C(O)=C3C(=O)c4c(O)cc(Cl)c([N+]#N)c4CC3CC12 (stereo partly drawn) [D, 8-(Aminocarbonyl)-2-chloro-10-(dimethylamino)-5,6a,10,10a,11,11a,12-octahydro-5,7-dioxo-l-naphthacenediazonium chloride] | 32 mg/L | 2 mg/L | 8 mg/L | 4 mg/L | 4 mg/L | > 32 mg/L | – | – | – | – | 0.12 mg/L | 32 mg/L | 2 mg/L | 32 mg/L | 0.5 mg/L | 2 mg/L | – | 1 mg/L | 16 mg/L | – | MIC ([7]; agar dilution, Muller-Hinton II agar, 18 hours at 35° C., S. aureus IVES 1983 (MP) (meth. resistant), read-out: MIC): 16 mg/L; MIC ([8]; agar dilution, Muller-Hinton II agar, 18 hours at 35° C., S. aureus IVES 2943 (meth. resistant), read-out: MIC): 16 mg/L
3 | CN(C)[C@@H]1C(O)=C(C(N)=O)C(=O)[C@@]2(O)C(O)=C3C(=O)c4c(cc(Cl)c(N)c4O)CC3CC12 (some centres unmarked) [G, 9-Amino-8-chloro-4-(dimethylamino)-1,4,-4a,5,5a,6,11,12a-octahydro-3,10,12,12a-tetrahydroxy-1,11-dioxo-2-naphthacenecarboxamide] | – | 0.25 mg/L (≈ 0.539 µM) | 2 mg/L (≈ 4.31 µM) | 1 mg/L (≈ 2.16 µM) | 1 mg/L (≈ 2.16 µM) | > 32 mg/L | 8 mg/L (≈ 17.2 µM) | 8 mg/L (≈ 17.2 µM) | – | 0.12 mg/L (≈ 0.259 µM) | < 0.015 mg/L | 4 mg/L (≈ 8.62 µM) | – | 4 mg/L (≈ 8.62 µM) | < 0.015 mg/L | – | 1 mg/L (≈ 2.16 µM) | – | – | < 0.015 mg/L | MIC ([13]; 18 h): 2 mg/L (≈ 4.31 µM); MIC [18, 27]: < 0.015 mg/L; MIC ([16]; 18 h): 0.25 mg/L (≈ 0.539 µM)
4 | COC(=O)Nc1c(Cl)cc2c(c1O)C(=O)C1=C(O)[C@]3(O)C(=O)C(C(N)=O)=C(O)[C@@H](N(C)C)C3CC1C2 (stereo partly drawn) [I, 7S-(7alpha, 10aalpha)!- 9-(Aminocarbonyl)-3-chloro-7-(dimethylamino)-5,5a,6-6a,7,10,10a,12-octahydro-1,8,10a,11-tetrahydroxy-10,12-dioxo-2-naphthacenyl!-carbamic acid methyl ester] | 8 mg/L (≈ 15.3 µM) | 0.5 mg/L (≈ 0.958 µM) | 2 mg/L (≈ 3.83 µM) | 0.5 mg/L (≈ 0.958 µM) | 0.5 mg/L (≈ 0.958 µM) | > 32 mg/L | 4 mg/L (≈ 7.66 µM) | 4 mg/L (≈ 7.66 µM) | 0.06 mg/L (≈ 0.115 µM) | – | < 0.015 mg/L | 16 mg/L (≈ 30.7 µM) | – | – | – | – | 8 mg/L (≈ 15.3 µM) | 0.5 mg/L (≈ 0.958 µM) | – | – | MIC ([13]; 18 h): 2 mg/L (≈ 3.83 µM); MIC ([18]; 18 h): 0.06 mg/L (≈ 0.115 µM); MIC ([15]; 18 h): 0.06 mg/L (≈ 0.115 µM); MIC ([16]; 18 h): 0.5 mg/L (≈ 0.958 µM)
5 | CN(C)c1ccc(O)c2c1C[C@H]1C[C@H]3[C@H](N(C)C)C(O)=C(C(N)=O)C(=O)[C@@]3(O)C(O)=C1C2=O [L, Minocycline hydrochloride, reference compound] | 8 mg/L | 4 mg/L | – | 4 mg/L | 4 mg/L | 16 mg/L | 4 mg/L | 4 mg/L | – | – | ≤ 0.015 mg/L | 1 mg/L | 8 mg/L | 0.25 mg/L | 0.03 mg/L | 1 mg/L | – | – | 0.5 mg/L | 0.03 mg/L | % Inhibition Wild Type S30 ([19]; Conc. 0.1 mg/ml): 66%; % Inhibition Wild Type S30 ([19]; Conc. 0.3 mg/ml, hydrochloride): 91%; % Inhibition Wild Type S30 ([19]; Conc. 1.0 mg/ml): 90%; inhibition of protein synthesis, in words ([19]; cell-free extracts from tetracycline susceptible strain MRE600): inhibited; % Inhibition TetM S30 ([20]; Conc. 0.1 mg/ml): 0%; % Inhibition TetM S30 ([20]; Conc. 0.3 mg/ml): 0%; % Inhibition TetM S30 ([20]; Conc. 1.0 mg/ml, hydrochloride): 19%; % Inhibition TetM S30 ([20]; Conc. 1.0 mg/ml, listed as minocycline, hydrochloride): less than 20%; inhibition of protein synthesis, in words ([20]; cell-free extracts from strain MRE600 (tetM)): resistant; MIC [18, 27]: 0.03 mg/L
